Source: ChEMBL document CHEMBL1201862, “PubChem BioAssay data set” (2004)
One block for each compound: values may come before it. The source made the active and inactive calls.

Assays:
Format in all cases: functional
[1] = target: T1, Cannabinoid receptor 2 (Homo sapiens, UniProt P34972); assay: SAR analysis of antagonists of the Cannabinoid Receptor 2 using an Image-Based Assay - Set 2. [Related pubchem assays (depositor defined):AID1961, AID1965]
[2] = target: G-protein coupled receptor 55 (Homo sapiens, UniProt Q9Y2T6); assay: SAR analysis of selective Agonists of GPR55 using an Image-Based Assay - Set 2. [Related pubchem assays (depositor defined):AID1961, AID1965]
[3] = target: T1, Cannabinoid receptor 2; assay: SAR analysis of agonists of the Cannabinoid Receptor 2 using an Image-Based Assay - Set 2. [Related pubchem assays (depositor defined):AID1961, AID1965]
[4] = target: T2, G-protein coupled receptor 35 (Homo sapiens, UniProt Q9HC97); assay: SAR analysis of Agonists of the GPR35 Receptor using an Image-Based Assay - Set 3. [Related pubchem assays (depositor defined):AID1961, AID1965]
[5] = target: T3, Cannabinoid receptor 1 (Homo sapiens, UniProt P21554); assay: SAR analysis of antagonists of the Cannabinoid Receptor 1 using an Image-Based Assay - Set 3. [Related pubchem assays (depositor defined):AID1961, AID1965]
[6] = target: T3, Cannabinoid receptor 1; assay: SAR analysis of agonists of the Cannabinoid Receptor 1 using an Image-Based Assay - Set 3. [Related pubchem assays (depositor defined):AID1961, AID1965]
[7] = target: T2, G-protein coupled receptor 35; assay: SAR analysis of Antagonists of the GPR35 Receptor using an Image-Based Assay - Set 4. [Related pubchem assays (depositor defined):[…]]
[8] = target: DNA dC->dU-editing enzyme APOBEC-3A (Homo sapiens, UniProt P31941); assay: Dose Response confirmation of small molecule APOBEC3A DNA Deaminase Inhibitors via a fluorescence-based single-stranded DNA deaminase assay. [Related pubchem assays (depositor defined):AID493011, AID493024]
[9] = target: DNA dC->dU-editing enzyme APOBEC-3G (Homo sapiens, UniProt Q9HC16);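 also: Dose-response counterscreen measuring inhibition of APOBEC3G DNA deaminase activity, run while confirming APOBEC3A inhibitors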
[10] = target: T4, Carboxy-terminal domain RNA polymerase II polypeptide A small phosphatase 1 (Homo sapiens, UniProt Q9GZU7); assay: inhibitors of CTDSP1, concentration-response testing, biochemical assay, absorbance-based, actives from ultra-high-throughput screening (AID 540297)
T4 sequence (Q9GZU7 whole entry): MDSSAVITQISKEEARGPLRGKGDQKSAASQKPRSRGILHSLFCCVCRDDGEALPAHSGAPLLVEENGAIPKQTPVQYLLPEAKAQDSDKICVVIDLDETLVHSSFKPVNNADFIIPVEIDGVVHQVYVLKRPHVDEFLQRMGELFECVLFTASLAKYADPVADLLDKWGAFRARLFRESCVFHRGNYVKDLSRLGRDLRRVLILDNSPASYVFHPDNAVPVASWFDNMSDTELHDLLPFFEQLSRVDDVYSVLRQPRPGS

[11] = target: Tyrosine-protein phosphatase non-receptor type 11 (Homo sapiens, UniProt Q06124); assay: SHP2 phosphatase inhibition, dose response, selectivity assay for STEP inhibitor project, biochemical (AID 602367); conditions: read-out: IC50_Mean
[12] = target: Tyrosine-protein phosphatase non-receptor type 5 (Homo sapiens, UniProt P54829); assay: STEP phosphatase inhibitors, confirmation, biochemical, fluorescence intensity, uHTS hits (AID 602372); conditions: read-out: IC50_Mean
[13] = target: Dual specificity protein phosphatase 3 (Homo sapiens, UniProt P51452); assay: VHR phosphatase inhibition, dose response, selectivity assay for STEP inhibitor project, biochemical (AID 602374); conditions: read-out: IC50_Mean
[14] = target: Integrin alpha-L (Mus musculus, UniProt P24063); assay: modulators of CD8 T cell-vesicle binding, dose response, powder samples, mouse 2C CD8+ cells (AID 504565)
Sequence of Integrin alpha-L (P24063 whole entry): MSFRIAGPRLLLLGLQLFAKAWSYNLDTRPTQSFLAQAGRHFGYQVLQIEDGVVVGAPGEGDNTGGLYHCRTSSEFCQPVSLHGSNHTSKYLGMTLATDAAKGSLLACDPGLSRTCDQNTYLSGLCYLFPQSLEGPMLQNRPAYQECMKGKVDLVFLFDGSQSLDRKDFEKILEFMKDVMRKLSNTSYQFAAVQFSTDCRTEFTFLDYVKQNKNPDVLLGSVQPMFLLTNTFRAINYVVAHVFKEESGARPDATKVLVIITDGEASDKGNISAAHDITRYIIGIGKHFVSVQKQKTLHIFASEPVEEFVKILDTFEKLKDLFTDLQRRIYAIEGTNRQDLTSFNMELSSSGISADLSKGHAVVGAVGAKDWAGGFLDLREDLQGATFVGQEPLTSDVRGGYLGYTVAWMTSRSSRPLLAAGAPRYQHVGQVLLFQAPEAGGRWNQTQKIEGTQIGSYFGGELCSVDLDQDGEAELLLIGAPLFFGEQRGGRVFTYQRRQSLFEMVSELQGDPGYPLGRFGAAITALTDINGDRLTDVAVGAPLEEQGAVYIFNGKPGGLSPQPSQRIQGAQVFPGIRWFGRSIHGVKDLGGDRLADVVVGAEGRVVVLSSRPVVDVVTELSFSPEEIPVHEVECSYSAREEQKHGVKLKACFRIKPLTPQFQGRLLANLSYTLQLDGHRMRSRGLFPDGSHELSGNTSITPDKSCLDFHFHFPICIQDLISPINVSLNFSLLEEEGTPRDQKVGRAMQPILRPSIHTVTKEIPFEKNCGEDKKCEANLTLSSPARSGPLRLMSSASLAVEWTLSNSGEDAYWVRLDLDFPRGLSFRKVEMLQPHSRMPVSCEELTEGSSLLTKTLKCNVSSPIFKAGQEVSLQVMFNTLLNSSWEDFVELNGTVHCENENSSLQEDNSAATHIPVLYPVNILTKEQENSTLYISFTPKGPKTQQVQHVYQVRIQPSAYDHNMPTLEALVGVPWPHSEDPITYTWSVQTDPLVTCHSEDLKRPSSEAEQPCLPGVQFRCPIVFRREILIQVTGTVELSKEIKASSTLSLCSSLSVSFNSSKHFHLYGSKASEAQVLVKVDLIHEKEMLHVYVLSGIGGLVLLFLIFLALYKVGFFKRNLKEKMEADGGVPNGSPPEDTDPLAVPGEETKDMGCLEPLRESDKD

T2 sequence (Q9HC97 whole entry): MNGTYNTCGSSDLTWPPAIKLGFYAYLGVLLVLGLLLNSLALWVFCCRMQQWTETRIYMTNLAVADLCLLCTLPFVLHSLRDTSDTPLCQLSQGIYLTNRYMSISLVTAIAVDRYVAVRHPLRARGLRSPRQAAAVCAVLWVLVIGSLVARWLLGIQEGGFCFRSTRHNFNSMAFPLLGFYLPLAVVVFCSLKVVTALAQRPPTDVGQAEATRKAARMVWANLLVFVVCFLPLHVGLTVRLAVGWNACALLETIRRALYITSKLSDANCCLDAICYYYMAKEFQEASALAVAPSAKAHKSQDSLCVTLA
T3 sequence (P21554 whole entry): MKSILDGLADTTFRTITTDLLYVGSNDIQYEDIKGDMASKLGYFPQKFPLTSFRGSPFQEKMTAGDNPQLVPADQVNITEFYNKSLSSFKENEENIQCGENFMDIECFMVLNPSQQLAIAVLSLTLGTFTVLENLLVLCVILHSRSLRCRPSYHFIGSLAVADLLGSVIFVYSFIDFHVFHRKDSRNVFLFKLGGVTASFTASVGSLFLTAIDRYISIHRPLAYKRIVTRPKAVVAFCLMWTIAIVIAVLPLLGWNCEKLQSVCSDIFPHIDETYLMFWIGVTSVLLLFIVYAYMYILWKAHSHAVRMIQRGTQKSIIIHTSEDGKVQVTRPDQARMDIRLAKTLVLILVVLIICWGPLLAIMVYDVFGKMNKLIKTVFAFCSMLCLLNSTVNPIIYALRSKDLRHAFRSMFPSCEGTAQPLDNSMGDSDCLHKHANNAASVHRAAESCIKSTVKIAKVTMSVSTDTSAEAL
T1 sequence (P34972 whole entry): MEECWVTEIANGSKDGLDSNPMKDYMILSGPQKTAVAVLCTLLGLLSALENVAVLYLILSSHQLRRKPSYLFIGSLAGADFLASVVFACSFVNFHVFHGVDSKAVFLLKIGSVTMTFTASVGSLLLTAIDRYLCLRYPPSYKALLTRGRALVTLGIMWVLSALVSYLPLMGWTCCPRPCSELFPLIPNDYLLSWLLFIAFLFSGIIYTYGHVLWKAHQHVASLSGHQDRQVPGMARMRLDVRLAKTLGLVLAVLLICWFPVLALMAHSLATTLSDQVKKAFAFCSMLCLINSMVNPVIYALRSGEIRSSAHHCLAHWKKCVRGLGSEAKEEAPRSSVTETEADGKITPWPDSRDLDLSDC
Sequence of G-protein coupled receptor 55 (Q9Y2T6 whole entry): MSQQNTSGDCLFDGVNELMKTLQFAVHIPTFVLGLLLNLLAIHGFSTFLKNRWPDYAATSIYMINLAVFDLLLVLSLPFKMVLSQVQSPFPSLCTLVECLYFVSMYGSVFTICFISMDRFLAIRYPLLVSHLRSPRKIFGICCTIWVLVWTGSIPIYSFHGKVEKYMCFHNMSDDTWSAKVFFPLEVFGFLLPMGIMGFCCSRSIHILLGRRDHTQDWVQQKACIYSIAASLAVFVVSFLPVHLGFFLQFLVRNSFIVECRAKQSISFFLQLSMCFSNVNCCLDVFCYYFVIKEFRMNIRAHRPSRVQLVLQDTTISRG
Sequence of DNA dC->dU-editing enzyme APOBEC-3G (Q9HC16 whole entry, the tested form may be a part): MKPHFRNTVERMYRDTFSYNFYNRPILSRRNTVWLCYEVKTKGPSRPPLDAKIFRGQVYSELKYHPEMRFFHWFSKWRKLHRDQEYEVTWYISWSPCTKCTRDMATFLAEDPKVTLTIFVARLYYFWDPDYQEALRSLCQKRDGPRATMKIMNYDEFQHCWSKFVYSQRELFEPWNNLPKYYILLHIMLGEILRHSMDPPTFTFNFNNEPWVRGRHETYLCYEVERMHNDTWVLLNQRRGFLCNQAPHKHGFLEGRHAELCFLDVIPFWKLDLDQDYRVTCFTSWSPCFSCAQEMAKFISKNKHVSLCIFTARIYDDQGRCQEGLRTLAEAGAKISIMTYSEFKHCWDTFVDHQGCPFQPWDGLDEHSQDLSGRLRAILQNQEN
Sequence of Tyrosine-protein phosphatase non-receptor type 5 (P54829 whole entry): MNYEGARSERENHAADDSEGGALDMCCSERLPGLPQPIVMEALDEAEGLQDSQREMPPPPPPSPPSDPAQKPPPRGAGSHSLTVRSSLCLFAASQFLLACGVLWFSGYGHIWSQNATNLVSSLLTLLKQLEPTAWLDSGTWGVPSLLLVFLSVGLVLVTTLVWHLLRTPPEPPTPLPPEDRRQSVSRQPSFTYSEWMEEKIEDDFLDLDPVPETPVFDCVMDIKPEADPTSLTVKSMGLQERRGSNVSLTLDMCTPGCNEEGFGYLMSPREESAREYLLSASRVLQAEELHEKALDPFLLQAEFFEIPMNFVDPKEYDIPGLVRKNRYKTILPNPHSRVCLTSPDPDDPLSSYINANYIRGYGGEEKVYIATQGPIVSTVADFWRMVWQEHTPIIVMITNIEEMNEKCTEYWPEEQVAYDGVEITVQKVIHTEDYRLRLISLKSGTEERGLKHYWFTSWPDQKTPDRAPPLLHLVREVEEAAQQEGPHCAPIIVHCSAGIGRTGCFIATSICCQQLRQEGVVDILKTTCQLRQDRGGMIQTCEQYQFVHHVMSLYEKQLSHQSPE
Sequence of DNA dC->dU-editing enzyme APOBEC-3A (P31941 whole entry): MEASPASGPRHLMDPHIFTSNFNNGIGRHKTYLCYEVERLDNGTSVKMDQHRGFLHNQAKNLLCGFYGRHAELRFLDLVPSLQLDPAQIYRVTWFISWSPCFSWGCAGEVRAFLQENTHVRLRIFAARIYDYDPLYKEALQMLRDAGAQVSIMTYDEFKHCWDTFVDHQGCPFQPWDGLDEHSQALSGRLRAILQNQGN
Sequence of Dual specificity protein phosphatase 3 (P51452 whole entry): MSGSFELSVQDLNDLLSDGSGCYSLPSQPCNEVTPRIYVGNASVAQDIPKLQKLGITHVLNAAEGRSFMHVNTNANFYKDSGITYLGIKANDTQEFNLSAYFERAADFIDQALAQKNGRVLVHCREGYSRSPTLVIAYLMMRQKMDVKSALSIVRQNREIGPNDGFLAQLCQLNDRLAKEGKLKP

IC50 [1]: > 32 µM (inactive)
EC50 [2]: > 32 µM (inactive)
EC50 [3]: > 32 µM (inactive)
EC50 [4]: > 32 µM (inactive)
IC50 [5]: > 32 µM (inactive)
EC50 [6]: > 32 µM (inactive)
IC50 [7]: > 32 µM (inactive)
Structure (SMILES): COc1ccc(S(=O)(=O)N2CCOCC2)cc1NC(=O)c1ccc(OC(F)F)cc1

Structure (SMILES): COc1cccc(N2[C@@H](CC(=O)O)c3ccc(/C=C/C(=O)O)cc3S2(=O)=O)c1
IC50 [8]: 12.2 µM (active)
IC50 [9]: 41.2 µM (active)
IC50 [10]: 2.88 µM (active)
IC50 [11]: 0.933 µM (active)
IC50 [12]: 52.1 µM (inactive)
IC50 [13]: 2.49 µM (active)

EC50 [14]: 1.21 µM (active)
Structure (SMILES): O=C(COC(=O)C12CC3CC(CC(Br)(C3)C1)C2)Nc1cccc(S(=O)(=O)N2CCOCC2)c1
